# Reference: PubChem BioAssay AID732 (Emory University Molecular Libraries Screening Center, 2007)
# “And” between values parts separate entries of the source, which are not always exact repeats. Equal values may be shown once. The source made the active and inactive calls. No rule for the calls is given here.
# Test system: in vivo angiogenesis, blood vessel count
# Assay: reduction of blood vessel formation in vivo – HTS, in vivo study (AID 732);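 also: zebrafish embryos dosed at one day post fertilization; 0% = reference inhibitor and 100% = plate mean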
# Conditions: hits give low values;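 tested at 30 µM in the well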
row,Compound,vessel count % control
1,CCCCOc1cc(CC2CNC(=O)N2)ccc1OC (stereo unspecified),106% (inactive)
2,C[C@H](NC(=O)/C(C#N)=C/c1ccc(O)c(O)c1)c1ccccc1,102% (inactive)
3,Cc1cc(N)c2ccccc2[n+]1CCCCCCCCCCCCCC[n+]1c(C)cc(N)c2ccccc21,79.9% (inactive)
4,CN1C2CCC1CC(OC(c1ccccc1)c1ccccc1N)C2 (stereo unspecified),91.2% (inactive)
5,CC1=C(CC(=O)O)c2cc(F)ccc2/C1=C\c1ccc(S(C)(=O)=O)cc1,112% (inactive)
6,O=C(O)C1CN(CCCP(=O)(O)O)CCN1 (stereo unspecified),119% (inactive)
7,O=C(NCC1CCCCN1)c1cc(OCC(F)(F)F)ccc1OCC(F)(F)F (stereo unspecified),127% (inactive)
8,CC(C)CN(C)c1nc(N)c(C(=O)N=C(N)N)nc1Cl,101% (inactive)
9,COc1ccccc1N1CCNCC1,96.7% (inactive)
10,CC(C)(C)NCC(O)c1ccc(O)c(CO)c1 (stereo unspecified),122% (inactive) and 102% (inactive)
11,C[N+]1(CCCCC[N+]2(C)CCCC2)CCCC1,114% (inactive)
12,NC(N)=[N+]1CCc2ccccc2C1,113% (inactive)
13,COc1ccc(CN(CCN(C)C)c2ccccn2)cc1,106% (inactive)
14,NC1CCN(O)C1=O (stereo unspecified),115% (inactive)
15,CN1CCc2c(cc(O)c(O)c2Cl)C(c2cccc(Cl)c2)C1 (stereo unspecified),118% (inactive)
16,Cc1cc(N)c2ccccc2[n+]1CCCCCCCCCC[n+]1c(C)cc(N)c2ccccc21,100% (inactive)
17,CN1C2CCC1CC(OC(c1ccccc1)c1ccc(Cl)cc1)C2 (stereo unspecified),98.7% (inactive)
18,O=C(O)Cc1ccc(O)c(O)c1,107% (inactive)
19,NC(N)=Nc1nc(CSCC/C(N)=N/S(N)(=O)=O)cs1,113% (inactive)
20,CCCN(CCC)C(=O)Cc1c(-c2ccc(Cl)cc2)nc2c(Cl)cc(Cl)cn12,89.9% (inactive)
21,CN1CCc2cc(NC(=O)Nc3cccnc3)ccc21,86.6% (inactive)
22,CCCCS(=N)(=O)CCC(N)C(=O)O (stereo unspecified),137% (inactive)
23,NCCc1c[nH]c2ccccc12,118% (inactive)
24,COC(=O)C1=C(C)NC(C)=C([N+](=O)[O-])C1c1ccccc1C(F)(F)F (stereo unspecified),92.2% (inactive)
25,CNCCNS(=O)(=O)c1cccc2cnccc12,140% (inactive)
26,O=C(O)CN(CCOCCOCCN(CC(=O)O)CC(=O)O)CC(=O)O,103% (inactive)

row,Compound,vessel count % control
1,NC(CCCP(=O)(O)O)C(=O)O (stereo unspecified),75.8% (inactive)
2,Ic1ccc(N2CCN(Cc3c[nH]c4ncccc34)CC2)cc1,99.4% (inactive)
3,NCCCC(=O)O,109% (inactive)
4,Cc1cccc2c(C3=Nc4ccccc4C3=O)c(O)[nH]c12,26.6%
5,Fc1ccc(C(OCCCc2cnc[nH]2)c2ccc(F)cc2)cc1,89.2% (inactive)
6,NNC(N)=O,126% (inactive)
7,O=[N+]([O-])c1ccc(O[C@@H]2O[C@H](CO)[C@@H](O)[C@H](O)[C@H]2F)c([N+](=O)[O-])c1,99.2% (inactive)
8,CCOC(=O)c1ncn2c1CN(C)C(=O)c1cc(F)ccc1-2,98.9% (inactive)
9,CCCCOC(=O)NS(=O)(=O)c1sc(CC(C)C)cc1-c1ccc(Cn2c(CC)nc3c(C)cc(C)nc32)cc1,89% (inactive)
10,COCCc1ccc(OCC(O)CNC(C)C)cc1 (stereo unspecified),128% (inactive)
11,COc1cccc(OC)c1OCCNCC1COc2ccccc2O1 (stereo unspecified),90.6% (inactive)
12,CN1C2CCC1CC(OC(c1ccccc1)c1ccccc1)C2 (stereo unspecified),91.6% (inactive)
13,CC(CCc1ccccc1)NCC(O)c1ccc(O)c(C(N)=O)c1 (stereo unspecified),89.9% (inactive)
14,Cn1cc(C(F)(F)F)nc1-c1ccc(OCC(O)CNCCOc2ccc(O)c(C(N)=O)c2)cc1 (stereo unspecified),82.4% (inactive)
15,CN(C)CC[C@@H](c1ccc(Cl)cc1)c1ccccn1,107% (inactive)
16,N[C@@H](Cc1ccc(O)c(O)c1)C(=O)O,118% (inactive)
17,COc1cc(-c2ccc(=O)[nH]n2)ccc1OC(F)F,75.5% (inactive)
18,C[C@@H](Oc1ccc(Oc2cnc3ccc(Cl)cc3n2)cc1)C(=O)O,80.3% (inactive)
19,O=C(CCCN1CCC(O)(c2cccc(C(F)(F)F)c2)CC1)c1ccc(F)cc1,60.2% (inactive)
20,CN1CCC(=C2c3ccccc3CC(=O)c3sccc32)CC1,105% (inactive)
21,Cc1cc(C(C)(C)C)cc(C)c1CC1=NCCN1,101% (inactive)
22,Cn1c(=O)c2[nH]c(C3CCCC3)nc2n(C)c1=O,104% (inactive)
23,O=S(=O)(NCCNC/C=C/c1ccc(Br)cc1)c1cccc2cnccc12,90.3% (inactive)
24,CN1C[C@@H](CS(=O)(=O)N(C)C)C[C@@H]2c3cccc4c3c(cn4C)C[C@H]21,103% (inactive)
25,CN1CC[C@@]2(C)c3cc(O)ccc3N(C)C12 (stereo partly specified),95.1% (inactive)
